Data from patent US8026229B2, “Antitumor-active 2-alkoxyestradiol sulfamates” (Sterix Limited, priority 2001, dated 2011).

Legend:
[1] = target: T1, microtubular protein (tubulin) from porcine brains (Sus scrofa, UniProt P02550+P02554); experiment: Inhibition of tubulin polymerization in vitro (turbidimetry at 340 nm); format: biochemical; settings: microtubular protein 1 mg/ml, 0.25 mM GTP, 37° C.
T1 construct: Microtubular protein was purified by the method of Shelanski et al; from tissue; host or cells: porcine brain
T1 sequence (P02554 whole entry): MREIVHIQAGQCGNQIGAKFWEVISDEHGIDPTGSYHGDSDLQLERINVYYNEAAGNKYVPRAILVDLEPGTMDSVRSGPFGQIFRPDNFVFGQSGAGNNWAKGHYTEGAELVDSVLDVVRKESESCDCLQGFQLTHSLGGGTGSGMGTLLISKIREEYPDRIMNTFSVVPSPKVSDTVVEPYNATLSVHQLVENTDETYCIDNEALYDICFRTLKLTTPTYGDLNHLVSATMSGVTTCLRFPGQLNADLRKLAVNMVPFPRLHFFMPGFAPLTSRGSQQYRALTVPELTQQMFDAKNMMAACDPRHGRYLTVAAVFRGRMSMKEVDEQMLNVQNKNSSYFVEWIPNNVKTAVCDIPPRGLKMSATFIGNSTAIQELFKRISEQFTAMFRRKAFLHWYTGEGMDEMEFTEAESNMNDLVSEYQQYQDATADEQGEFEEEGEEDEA
T1 sequence (P02550 whole entry): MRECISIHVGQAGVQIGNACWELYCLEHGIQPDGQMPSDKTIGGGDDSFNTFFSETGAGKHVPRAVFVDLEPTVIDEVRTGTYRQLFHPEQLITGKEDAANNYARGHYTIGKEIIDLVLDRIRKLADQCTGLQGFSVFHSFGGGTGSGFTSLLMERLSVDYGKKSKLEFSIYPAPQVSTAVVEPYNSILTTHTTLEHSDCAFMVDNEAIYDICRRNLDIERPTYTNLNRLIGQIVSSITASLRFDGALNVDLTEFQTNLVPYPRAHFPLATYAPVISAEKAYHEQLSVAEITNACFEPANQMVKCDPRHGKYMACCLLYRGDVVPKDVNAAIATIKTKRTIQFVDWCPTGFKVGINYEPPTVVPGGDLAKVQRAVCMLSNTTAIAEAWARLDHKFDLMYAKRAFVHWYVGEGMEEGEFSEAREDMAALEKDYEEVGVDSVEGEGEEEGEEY
Description: The inventive compounds were tested in various models. The inventive compounds of general formula I are remarkable in that they inhibit tubulin polymerization more than does 2-methoxyestradiol. The effect on tubulin polymerization was tested in vitro in the following way:
Microtubular protein was purified by the method of Shelanski et al. (Shelanski et al., Proc. Natl. Acad. Sci. USA 1973, 70, 765-8) via cyclic assembly/disassembly from porcine brains. The buffer system used had the following composition: 20 mM PIPES (1,4-piperazinediethanesulfonic acid, pKa 6.8), 80 mM NaCl, 0.5 mM MgCl2, 1 mM EGTA (ethylene glycol bis(2-aminoethyl)tetraacetic acid). Protein concentrations of 1 mg/ml (approx. […] tubulin) were used to test the active substance. The protein was determined by the method of Lowry (Lowry et al., J. Biol. Chem. 1951, 193, 265-75) using bovine serum albumin as standard. The assembly of the microtubuli was carried out in the presence of 0.25 mM GTP and heating of the samples to 37° C.
Microtubulus formation was checked using turbidimetry at a wavelength of 340 nm.
The active substances were tested by adding them at the beginning of the assembly or at the state of equilibrium. Their effectiveness is characterized by deviations in the turbidity curves from those of the control. To check the effect and evaluate the turbidity values measured, a transmission electron microscopic examination (CEM 902 A, Zeiss, Oberkochen, Germany) of the assemblate was always carried out after negative staining with 1% aqueous uranyl acetate.

[2] = system: tubulin; settings: literature, J. Med. Chem. 1997, 40, 2323-2334; cited from earlier work

| Compound | IC50 [1] [nM] | Activity in inhibition of tubulin polymerization compared with 2-methoxyestradiol [2] |
| --- | --- | --- |
| COc1cc2c(cc1O)CCC1C2CC[C@@]2(C)C1CC[C@@H]2O (stereo partly shown) [2-Methoxyestradiol] | > 3000 |  |
| COc1cc2c(cc1OS(N)(=O)=O)CCC1C2CC[C@]2(C)C(=O)CCC12 (stereo partly shown) [2-Methoxyestrone-3-sulfamate] | 1600 |  |
| CCOc1cc2c(cc1O)CC[C@@H]1[C@@H]2CC[C@]2(C)[C@@H](O)CC[C@@H]12 [2-ethoxyestradiol] |  | higher than that of 2-methoxyestradiol |
| COc1cc2c(cc1OS(N)(=O)=O)CC[C@@H]1[C@@H]2CC[C@]2(C)[C@@H](O)CC[C@@H]12 [Example 1, 2-Methoxy-17β-hydroxy-estra-1,3,5(10)-trien-3-yl sulfamate] | 1000 |  |
